How the values were obtained:
eosinophils [1] = tested on: eosinophils
Description: (§1) In FIG. 2A the time period marked “W” represents the end of the 4-week washout following the month 3 time point.
The Phase 2 trial was a two-part, double-blind study that evaluated the safety, tolerability, and clinical effects of dexpramipexole in ALS patients.
In Part 1, subjects were randomized to placebo (n=27), 50 mg/day (n=23), 150 mg/day (n=26), or 300 mg/day dexpramipexole (n=26) for 12 weeks.

[2] = tested on: Siglec-F lo IL5Rα hi positive cells (developing B cells, basophils and other cell populations); settings: mice, 30 mg/kg or 100 mg/kg daily gavage, 70 days, either dose
Description: (§2) The study consisted of 3 groups of BALB/cByJ mice (10 mice per group). Mice received daily gavage treatments of either 30 mg/kg, 100 mg/kg of dexpramipexole or vehicle control for 70 days. Bone marrow was processed into single cell suspensions and cells were stained with fluorescent conjugate antibodies to analyze the developmental stages of cells by flow cytometry. […] The columns depict the mean for each group and the error bar indicates the standard error of the mean. The asterisks denote statistical significance between treatment groups and the vehicle control group by one-way ANOVA (* p≦0.05, ** p≦0.01).

[3] = tested on: Sca1+ c-Kit+ lineage negative cells (multipotent hematopoietic stem cells); settings: mice, 30 mg/kg or 100 mg/kg daily gavage, 70 days, either dose
Description: as §2

[4] = tested on: myeloid and lymphoid cell types, red blood cells, platelets; settings: Phase 3, 300 mg daily, month 6
Description: Hematological parameters were measured in a Phase 3 study of dexpramipexole in ALS. Because of the high rate of mortality among ALS patients, including subjects in the Phase 3 trial, hematology parameters obtained at the month 6 visit were chosen for analysis to remove the effect of study dropouts in later months.

eosinophils [5] = format: in vivo; settings: minipigs, 7.5, 25, 75/50 mg/kg daily oral gavage, 39 weeks
Description: In a 39-week repeat-dose toxicology study, minipigs were dosed at 0, 7.5, 25, and 75 mg/kg dexpramipexole by daily oral gavage through Study Day 45 and at 0, 7.5, 25, and 50 mg/kg dexpramipexole from Study Day 46 to study completion.

eosinophils [6] = tested on: eosinophils; remark: listed apart in the source
Description: as §1
The phase 3 clinical trial was a double-blind study of dexpramipexole in ALS patients randomized 1:1 to placebo or dexpramipexole 300 mg daily treatment. Hematology parameters were collected as part of routine safety monitoring. Eosinophil and basophil counts were retrospectively analyzed by visit.
Eosinophil levels were summarized over available time points and analyzed by ANOVA testing the effect of treatment vs. placebo on mean changes in serum eosinophil counts from baseline. Subjects with baseline eosinophils from 0 to 0.02×10^9/L (constituting less than 2% of all subjects analyzed) were censored from the primary analysis because of the inherent limitation to observe a decline from baseline.
Statistical analysis of the change from baseline was performed at month 6 to remove the effect of study dropouts in later months.

## CCCN[C@@H]1CCc2nc(N)sc2C1 [dexpramipexole, (6R)-2-amino-4,5,6,7-tetrahydro-6-(propylamino) benzothiazole]
Eosinophils [1]; Phase 2 trial in ALS subjects
  effect on eosinophil counts: dose- and time-dependent decrease in eosinophil counts
Eosinophils [1]; one Phase 2 subject, Part 2 baseline, through month 12
  eosinophil counts in subject with hypereosinophilia at baseline: decrease in eosinophil counts
[2]
  Siglec-F lo IL5Rα hi positive cells in bone marrow vs vehicle control: lowered
[3]
  number of Sca1+ c-Kit+ lineage negative cells in bone marrow vs vehicle control: lowered
[4]
  change of all myeloid and lymphoid cell types measured: statistically significant mean reductions from baseline
Eosinophils [5]
  effect on eosinophils: dose- and time-dependent reduction in eosinophils
Eosinophils [6]; Phase 3, after 8-12 weeks of treatment, persisted for the duration of the trial
  peripheral blood eosinophil count: profound decrease
Eosinophils [6]; Phase 3 subject with highest baseline eosinophil count, through month 12
  eosinophil counts in subject with elevated eosinophil counts at baseline: decrease in eosinophil counts

Reference: US9763918B2, “Compositions and methods for treating chronic urticaria” (Knopp Biosciences LLC, priority 2013, dated 2017)
